Measured values reported in patent US12655116B2, “Substituted isophthalic acid diamides” (Bayer Aktiengesellschaft, priority 2020, dated 2026).

Legend:
ABUTH [1] = experiment: Pre-emergence herbicidal action against ABUTH; format: in vivo, Abutilon theophrasti; conditions: for Pre-emergence action against ABUTH (herbicidal activity): 80 g/ha, scored visually after 3 weeks vs untreated controls (100% = plants have died, 0% = like control plants); for Pre-emergence action against ABUTH (herbicidal activity in percent): dosage 20 g/ha, scored visually after 3 weeks vs untreated controls, 100% = plants have died, 0% = like control plants
Source text: (§1) Seeds of monocotyledonous and dicotyledonous weed plants and crop plants are laid out in sandy loam soil in wood-fiber pots and covered with soil. The compounds of the invention, formulated in the form of wettable powders (WP) or as emulsion concentrates (EC), are then applied to the surface of the covering soil in the form of an aqueous suspension or emulsion at a water application rate equivalent to 600 to 800 l/ha, with addition of 0.2% wetting agent. After the treatment, the pots are placed in a greenhouse and kept under good growth conditions for the trial plants. The damage to the test plants is scored visually after a test period of 3 weeks by comparison with untreated controls (herbicidal activity in percent (%): 100% activity=the plants have died, 0% activity=like control plants). […] The tables below illustrate, in an illustrative manner, the post-emergence herbicidal action of the compounds of the invention, the herbicidal activity being stated in percent.

AMARE [2] = experiment: Pre-emergence herbicidal action against AMARE; format: in vivo, Amaranthus retroflexus
Source text: as §1

VERPE = experiment: Pre-emergence herbicidal action against VERPE; format: in vivo, Veronica persica
Source text: as §1

AMARE [3] = experiment: Post-emergence herbicidal action against AMARE; format: in vivo, Amaranthus retroflexus; conditions: 20 g/ha, visual assessment about 3 weeks after treatment, 100% = plants have died, 0% = like control plants
Description: (§2) Seeds of monocotyledonous and dicotyledonous weed and crop plants are laid out in sandy loam soil in wood-fiber pots, covered with soil and cultivated in a greenhouse under good growth conditions. 2 to 3 weeks after sowing, the test plants are treated at the one-leaf stage. The compounds of the invention, formulated in the form of wettable powders (WP) or as emulsion concentrates (EC), are then sprayed onto the green parts of the plants in the form of an aqueous suspension or emulsion at a water application rate equivalent to 600 to 800 l/ha, with addition of 0.2% wetting agent. After the test plants have been left to stand in the greenhouse under optimal growth conditions for about 3 weeks, the action of the preparations is assessed visually in comparison to untreated controls (herbicidal action in percent (%): 100% activity=the plants have died, 0% activity=like control plants). […] The tables below illustrate, in an illustrative manner, the post-emergence herbicidal action of the compounds of the invention, the herbicidal activity being stated in percent.

ECHCG [4] = experiment: Pre-emergence herbicidal action against ECHCG; format: in vivo, Echinochloa crus-galli; conditions: 80 g/ha
Source text: as §1

MATIN [5] = experiment: Pre-emergence herbicidal action against MATIN; format: in vivo, Matricaria inodora
Source text: as §1

SETVI [6] = experiment: Pre-emergence herbicidal action against SETVI; format: in vivo, Setaria viridis; conditions: dosage 80 g/ha
Source text: as §1

VIOTR = experiment: Pre-emergence herbicidal action against VIOTR; format: in vivo, Viola tricolor
Source text: as §1

DIGSA [7] = experiment: Pre-emergence herbicidal action against DIGSA; format: in vivo, Digitaria sanguinalis
Source text: as §1

ABUTH [8] = experiment: Post-emergence herbicidal action against ABUTH; format: in vivo, Abutilon theophrasti; conditions: visual assessment about 3 weeks after treatment vs untreated controls
Description: as §2

PHBPU = experiment: Post-emergence herbicidal action against PHBPU; format: in vivo, Pharbitis purpurea; conditions: dosage 20 g/ha
Description: as §2

SETVI [9] = experiment: Post-emergence herbicidal action against SETVI; format: in vivo, Setaria viridis
Description: as §2

MATIN [10] = experiment: Post-emergence herbicidal action against MATIN; format: in vivo, Matricaria inodora; conditions: dosage 20 g/ha
Description: as §2

ALOMY = experiment: Pre-emergence herbicidal action against ALOMY; format: in vivo, Alopecurus myosuroides; conditions: 80 g/ha, pre-emergence, scored visually after 3 weeks vs untreated controls (100% = plants have died, 0% = like control plants)
Source text: as §1

ECHCG [11] = experiment: Post-emergence herbicidal action against ECHCG; format: in vivo, Echinochloa crus-galli
Description: as §2

DIGSA [12] = experiment: Post-emergence herbicidal action against DIGSA; format: in vivo, Digitaria sanguinalis; conditions: 20 g/ha
Description: as §2

AVEFA = experiment: Pre-emergence herbicidal action against AVEFA; format: in vivo, Avena fatua; conditions: 80 g/ha, pre-emergence
Source text: as §1

[13] = 20 g/ha, scored visually after 3 weeks vs untreated controls, 100% = plants have died, 0% = like control plants
[14] = 80 g/ha, scored visually after 3 weeks vs untreated controls (100% = plants have died, 0% = like control plants)

## Cc1c(C(=O)Nc2nnnn2C)ccc(C(F)(F)F)c1C(=O)NCC#N [Example 1-36]
ABUTH [1]
  Pre-emergence action against ABUTH (herbicidal activity): 100%
AMARE [2]; [13]
  Pre-emergence action against AMARE in %: 100%
AMARE [2]; [14]
  Pre-emergence action against AMARE in %: 100%
VERPE; dosage 80 g/ha
  Pre-emergence action against VERPE in %: 90%
AMARE [3]
  Post-emergence action at 20 g/ha against AMARE in %: 100%

## Cn1nnnc1NC(=O)c1ccc(C(F)(F)F)c(C(=O)NCc2cccs2)c1Cl [Example 1-144]
AMARE [2]; [13]
  Pre-emergence action against AMARE in %: 90%
AMARE [2]; [14]
  Pre-emergence action against AMARE in %: 100%
ECHCG [4]
  Pre-emergence action against ECHCG in %: 100%
MATIN [5]; dosage 20 g/ha
  Pre-emergence action against MATIN in %: 90%
MATIN [5]; dosage 80 g/ha
  Pre-emergence action against MATIN in %: 90%
SETVI [6]
  Pre-emergence action against SETVI in %: 80%
VERPE; dosage 80 g/ha
  Pre-emergence action against VERPE in %: 80%
VIOTR; dosage 20 g/ha
  Pre-emergence action against VIOTR in %: 80%
VIOTR; dosage 80 g/ha
  Pre-emergence action against VIOTR in %: 100%
DIGSA [7]; dosage 20 g/ha
  Pre-emergence action against DIGSA in %: 90%
DIGSA [7]; dosage 80 g/ha
  Pre-emergence action against DIGSA in %: 90%
AMARE [3]
  Post-emergence action at 20 g/ha against AMARE in %: 90%

## Cn1nnnc1NC(=O)c1ccc(C(F)F)c(C(=O)NCC#N)c1Cl [Example 1-158]
AMARE [2]; [13]
  Pre-emergence action against AMARE in %: 100%
AMARE [2]; [14]
  Pre-emergence action against AMARE in %: 100%
VERPE; dosage 20 g/ha
  Pre-emergence action against VERPE in %: 80%
VERPE; dosage 80 g/ha
  Pre-emergence action against VERPE in %: 80%
VIOTR; dosage 80 g/ha
  Pre-emergence action against VIOTR in %: 90%
ABUTH [8]; dosage 20 g/ha
  Post-emergence action against ABUTH in %: 80%
AMARE [3]
  Post-emergence action at 20 g/ha against AMARE in %: 90%

## CCn1nnnc1NC(=O)c1ccc(C(F)(F)F)c(C(=O)Nc2ccccc2)c1Cl [Example 2-143]
ABUTH [1]
  Pre-emergence action against ABUTH (herbicidal activity): 100%
AMARE [2]; [14]
  Pre-emergence action against AMARE in %: 100%
MATIN [5]; dosage 20 g/ha
  Pre-emergence action against MATIN in %: 90%
MATIN [5]; dosage 80 g/ha
  Pre-emergence action against MATIN in %: 100%
VERPE; dosage 80 g/ha
  Pre-emergence action against VERPE in %: 80%
VIOTR; dosage 80 g/ha
  Pre-emergence action against VIOTR in %: 80%
ABUTH [8]; dosage 20 g/ha
  Post-emergence action against ABUTH in %: 80%
PHBPU
  Post-emergence action against PHBPU in %: 80%

## CCn1nnnc1NC(=O)c1ccc(C(F)F)c(C(=O)NCC#N)c1Cl [Example 2-158]
ABUTH [1]
  Pre-emergence action against ABUTH (herbicidal activity): 100%
AMARE [2]; [14]
  Pre-emergence action against AMARE in %: 100%
MATIN [5]; dosage 80 g/ha
  Pre-emergence action against MATIN in %: 90%
VERPE; dosage 20 g/ha
  Pre-emergence action against VERPE in %: 80%
VERPE; dosage 80 g/ha
  Pre-emergence action against VERPE in %: 90%
VIOTR; dosage 80 g/ha
  Pre-emergence action against VIOTR in %: 100%
SETVI [9]; dosage 5 g/ha
  Post-emergence action against SETVI in %: 90%
SETVI [9]; dosage 20 g/ha
  Post-emergence action against SETVI in %: 90%

## CCn1nnnc1NC(=O)c1ccc(C(F)F)c(C(=O)Nc2ccccc2)c1Cl [Example 2-161]
ABUTH [1]
  Pre-emergence action against ABUTH (herbicidal activity): 100%
  Pre-emergence action against ABUTH (herbicidal activity in percent): 90%
AMARE [2]; [13]
  Pre-emergence action against AMARE in %: 90%
AMARE [2]; [14]
  Pre-emergence action against AMARE in %: 100%
MATIN [5]; dosage 20 g/ha
  Pre-emergence action against MATIN in %: 80%
MATIN [5]; dosage 80 g/ha
  Pre-emergence action against MATIN in %: 90%
VERPE; dosage 80 g/ha
  Pre-emergence action against VERPE in %: 80%
VIOTR; dosage 80 g/ha
  Pre-emergence action against VIOTR in %: 100%
ABUTH [8]; dosage 20 g/ha
  Post-emergence action against ABUTH in %: 80%
AMARE [3]
  Post-emergence action at 20 g/ha against AMARE in %: 100%
MATIN [10]
  Post-emergence action against MATIN in %: 80%
PHBPU
  Post-emergence action against PHBPU in %: 80%

## Cc1nnc(NC(=O)c2ccc(C(F)F)c(C(=O)NCC3CC3)c2C)o1 [Example 6-34]
ABUTH [1]
  Pre-emergence action against ABUTH (herbicidal activity): 100%
ALOMY
  Pre-emergence action against ALOMY (herbicidal activity): 80%
AMARE [2]; [13]
  Pre-emergence action against AMARE in %: 100%
AMARE [2]; [14]
  Pre-emergence action against AMARE in %: 100%
ECHCG [4]
  Pre-emergence action against ECHCG in %: 100%
MATIN [5]; dosage 80 g/ha
  Pre-emergence action against MATIN in %: 90%
DIGSA [7]; dosage 20 g/ha
  Pre-emergence action against DIGSA in %: 100%
DIGSA [7]; dosage 80 g/ha
  Pre-emergence action against DIGSA in %: 100%
ABUTH [8]; dosage 5 g/ha
  Post-emergence action against ABUTH in %: 80%
ABUTH [8]; dosage 20 g/ha
  Post-emergence action against ABUTH in %: 80%
AMARE [3]
  Post-emergence action at 20 g/ha against AMARE in %: 100%
ECHCG [11]; dosage 5 g/ha
  Post-emergence action against ECHCG in %: 80%
ECHCG [11]; dosage 20 g/ha
  Post-emergence action against ECHCG in %: 90%
PHBPU
  Post-emergence action against PHBPU in %: 80%
SETVI [9]; dosage 20 g/ha
  Post-emergence action against SETVI in %: 90%
DIGSA [12]
  Post-emergence action against DIGSA: 80%

## Cc1nnc(NC(=O)c2ccc(C(F)F)c(C(=O)NCC(F)(F)F)c2Br)o1 [Example 6-168]
ABUTH [1]
  Pre-emergence action against ABUTH (herbicidal activity): 100%
ALOMY
  Pre-emergence action against ALOMY (herbicidal activity): 80%
AMARE [2]; [13]
  Pre-emergence action against AMARE in %: 90%
AMARE [2]; [14]
  Pre-emergence action against AMARE in %: 100%
AVEFA
  Pre-emergence action against AVEFA in %: 80%
ECHCG [4]
  Pre-emergence action against ECHCG in %: 90%
MATIN [5]; dosage 20 g/ha
  Pre-emergence action against MATIN in %: 80%
MATIN [5]; dosage 80 g/ha
  Pre-emergence action against MATIN in %: 90%
SETVI [6]
  Pre-emergence action against SETVI in %: 90%
AMARE [3]
  Post-emergence action at 20 g/ha against AMARE in %: 100%
ECHCG [11]; dosage 5 g/ha
  Post-emergence action against ECHCG in %: 80%
ECHCG [11]; dosage 20 g/ha
  Post-emergence action against ECHCG in %: 80%

## Cc1nnc(NC(=O)c2ccc(C(F)F)c(C(=O)NCc3cccs3)c2Cl)o1 [Example 6-264]
AMARE [2]; [13]
  Pre-emergence action against AMARE in %: 80%
AMARE [2]; [14]
  Pre-emergence action against AMARE in %: 100%
SETVI [6]
  Pre-emergence action against SETVI in %: 80%
VERPE; dosage 80 g/ha
  Pre-emergence action against VERPE in %: 90%
AMARE [3]
  Post-emergence action at 20 g/ha against AMARE in %: 80%
DIGSA [12]
  Post-emergence action against DIGSA: 80%

## Cc1nnc(NC(=O)c2ccc(C(F)F)c(C(=O)NC(C)C3CC3)c2Br)o1 (centres unmarked) [Example 6-267]
ABUTH [1]
  Pre-emergence action against ABUTH (herbicidal activity): 100%
  Pre-emergence action against ABUTH (herbicidal activity in percent): 90%
ALOMY
  Pre-emergence action against ALOMY (herbicidal activity): 80%
AMARE [2]; [13]
  Pre-emergence action against AMARE in %: 90%
AMARE [2]; [14]
  Pre-emergence action against AMARE in %: 100%
ECHCG [4]
  Pre-emergence action against ECHCG in %: 80%
MATIN [5]; dosage 20 g/ha
  Pre-emergence action against MATIN in %: 90%
MATIN [5]; dosage 80 g/ha
  Pre-emergence action against MATIN in %: 100%
SETVI [6]
  Pre-emergence action against SETVI in %: 80%
VERPE; dosage 80 g/ha
  Pre-emergence action against VERPE in %: 90%
VIOTR; dosage 80 g/ha
  Pre-emergence action against VIOTR in %: 80%
ABUTH [8]; dosage 20 g/ha
  Post-emergence action against ABUTH in %: 80%
AMARE [3]
  Post-emergence action at 20 g/ha against AMARE in %: 90%
ECHCG [11]; dosage 20 g/ha
  Post-emergence action against ECHCG in %: 90%
PHBPU
  Post-emergence action against PHBPU in %: 80%
